Data taken from US20210017174A1, “IDENTIFICATION AND USE OF ERK5 INHIBITOR” (Bayer Aktiengesellschaft, priority 2018, published 2021).

Key:
[1] = biological target: T1, ERK5 (Homo sapiens, UniProt Q13164); assay: TR-FRET-based Erk5 activity inhibition assay (biochemical assay ERK5); settings: TR-FRET, 250 μM ATP, 1 μM substrate peptide, 60 min at 22° C.; read-out: IC50 value biochemiocal ERK5 asssay
T1 construct: host or cells: E. coli

[2] = test system: SN12C-MEF2-luc (clone #37) reporter cell line; assay: Luciferase reporter assay in SN12C-MEF2-luc cells (EGF-stimulated, MEF2-responsive luciferase); type: cell-based; settings: Homo sapiens, 16 h compound incubation, then EGF 100 ng/ml for 2 h, ONE-Glo luminescence;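 further: serially diluted compounds at 37 °C, EGF with DMSO as maximum signal and EGF with a 10 µM reference inhibitor as minimum (full inhibition)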

T1 sequence (Q13164 1-398): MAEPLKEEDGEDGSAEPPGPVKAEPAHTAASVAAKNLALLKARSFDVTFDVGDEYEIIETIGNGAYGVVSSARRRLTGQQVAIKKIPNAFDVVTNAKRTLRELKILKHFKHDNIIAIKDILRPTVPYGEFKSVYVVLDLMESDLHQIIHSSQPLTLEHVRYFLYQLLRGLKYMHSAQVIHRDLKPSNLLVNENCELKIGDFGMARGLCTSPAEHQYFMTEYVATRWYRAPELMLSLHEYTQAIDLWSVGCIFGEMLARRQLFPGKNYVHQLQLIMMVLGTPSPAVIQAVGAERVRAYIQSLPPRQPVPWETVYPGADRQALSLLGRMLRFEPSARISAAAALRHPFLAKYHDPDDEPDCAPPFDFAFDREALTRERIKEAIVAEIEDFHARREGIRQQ

IC50 [1] [nM]	IC50 [2] [nM]	SMILES
579	14600	COC(=O)c1ccc2c(C3CCN(C(=O)c4ccc(OC(F)(F)F)cc4)CC3)ncnc2c1 [Example 31, Methyl 4-{1-[4-(trifluoromethoxy)benzoyl]piperidin-4-yl}quinazoline-7-carboxylate]
1090	7040	CNC(=O)c1ccc2c(C3CCN(C(=O)c4ccc(OC(F)(F)F)cc4)CC3)ncnc2c1 [Example 41, N-Methyl-4-{1-[4-(trifluoromethoxy)benzoyl]piperidin-4-yl}quinazoline-7-carboxamide]
110	2450	O=C(c1ccc(OC(F)(F)F)cc1)N1CCC(c2ncnc3cc(OCCO)ccc23)CC1 [Example 47, {4-[7-(2-Hydroxyethoxy)quinazolin-4-yl]piperidin-1-yl}[4-(trifluoromethoxy)-phenyl]methanone]
145	352	O=C(c1ccc(OC(F)(F)F)cc1)N1CCC(c2ncnc3cc(OC4CCOCC4)ccc23)CC1 [Example 49, {4-[7-(Tetrahydro-2H-pyran-4-yloxy)quinazolin-4-yl]piperidin-1-yl}[4-(trifluoromethoxy)phenyl]-methanone]
167	387	CC(=O)NCCOc1ccc2c(C3CCN(C(=O)c4ccc(OC(F)(F)F)cc4)CC3)ncnc2c1 [Example 50, N-{2-[(4-{1-[4-(Trifluoromethoxy)benzoyl]piperidin-4-yl}quinazolin-7-yl)oxy]ethyl}acetamide]
43	594	O=C(c1ccc(OC(F)(F)F)cc1)N1CCC(c2ncnc3cc(C4CC4)ccc23)CC1 [Example 51, [4-(7-Cyclopropylquinazolin-4-yl)piperidin-1-yl][4-(trifluoromethoxy)phenyl]-methanone]
24.7	500	O=C(c1ccc(OC(F)(F)F)cc1)N1CCC(c2ncnc3cc(C4=CCOCC4)ccc23)CC1 [Example 52, {4-[7-(3,6-Dihydro-2H-pyran-4-yl)quinazolin-4-yl]piperidin-1-yl}[4-(trifluoro-methoxy)phenyl]-methanone]
78.1	627	O=C(c1ccc(OC(F)(F)F)cc1)N1CCC(c2ncnc3cc(-c4ccn[nH]4)ccc23)CC1 [Example 53, {4-[7-(1H-Pyrazol-5-yl)quinazolin-4-yl]piperidin-1-yl}[4-(trifluoromethoxy)-phenyl]methanone]
190	942	O=C(c1ccc(OC(F)(F)F)cc1)N1CCC(c2ncnc3cc(N4CCCC4=O)ccc23)CC1 [Example 54, 1-(4-{1-[4-(Trifluoromethoxy)benzoyl]piperidin-4-yl}quinazolin-7-yl)pyrrolidin-2-one]
89.8	694	O=C(c1ccc(OC(F)(F)F)cc1)N1CCC(c2ncnc3cc(OCC(F)F)ccc23)CC1 [Example 64, {4-[7-(2,2-Difluoroethoxy)quinazolin-4-yl]piperidin-1-yl}[4-(trifluoromethoxy)-phenyl]methanone]
241	669	COc1ccc2c(C3CCN(C(=O)c4ccc(OC(F)(F)F)cc4NC(C)=O)CC3)ncnc2c1 [Example 67, N-[2-{[4-(7-Methoxyquinazolin-4-yl)piperidin-1-yl]carbonyl}-5-(trifluoro-methoxy)phenyl]acetamide]
153	436	CN1CCC(Nc2cnc3c(C4CCN(C(=O)c5ccc(OC(F)(F)F)cc5)CC4)ncnc3c2)CC1 [Example 71, (4-{7-[(1-Methylpiperidin-4-yl)amino]pyrido[3,2-d]pyrimidin-4-yl}piperidin-1-yl)[4-(trifluoromethoxy)phenyl]methanone]
69.3	415	O=C(c1ccc(OC(F)(F)F)cc1)N1CCC(c2ncnc3cc(N4CCC(F)(F)C4)cnc23)CC1 [Example 72, {4-[7-(3,3-Difluoropyrrolidin-1-yl)pyrido[3,2-d]pyrimidin-4-yl]piperidin-1-yl}[4-(trifluoromethoxy)phenyl]methanone]
39.1	253	CC1(N)CCN(c2cnc3c(C4CCN(C(=O)c5ccc(OC(F)(F)F)cc5)CC4)ncnc3c2)CC1 [Example 73, {4-[7-(4-Amino-4-methylpiperidin-1-yl)pyrido[3,2-d]pyrimidin-4-yl]piperidin-1-yl}[4-(trifluoromethoxy)phenyl]methanone]
30.3	132	O=C(c1ccc(OC(F)(F)F)cc1)N1CCC(c2ncnc3cc(N4CCC(F)(F)CC4)cnc23)CC1 [Example 77, {4-[7-(4,4-Difluoropiperidin-1-yl)pyrido[3,2-d]pyrimidin-4-yl]piperidin-1-yl}[4-(trifluoromethoxy)phenyl]methanone]
36.3	103	CC1(C)CN(c2cnc3c(C4CCN(C(=O)c5ccc(OC(F)(F)F)cc5)CC4)ncnc3c2)CCO1 [Example 78, {4-[7-(2,2-Dimethylmorpholin-4-yl)pyrido[3,2-d]pyrimidin-4-yl]piperidin-1-yl}[4-(trifluoromethoxy)phenyl]methanone]
49.9	122	COC1CCN(c2cnc3c(C4CCN(C(=O)c5ccc(OC(F)(F)F)cc5)CC4)ncnc3c2)CC1 [Example 79, {4-[7-(4-Methoxypiperidin-1-yl)pyrido[3,2-d]pyrimidin-4-yl]piperidin-1-yl}[4-(trifluoromethoxy)phenyl]methanone]
